Values of other authors in patent publication US20040229855A1, “Antiglucocorticoids for the treatment of postpartum psychosis” (Corcept Therapeutics, Inc., priority 2003, published 2004).

How the values were obtained:
[1] = target: T1, glucocorticoid receptor (Homo sapiens, UniProt P04150); details: cited from earlier work
T1 sequence (P04150 1-777): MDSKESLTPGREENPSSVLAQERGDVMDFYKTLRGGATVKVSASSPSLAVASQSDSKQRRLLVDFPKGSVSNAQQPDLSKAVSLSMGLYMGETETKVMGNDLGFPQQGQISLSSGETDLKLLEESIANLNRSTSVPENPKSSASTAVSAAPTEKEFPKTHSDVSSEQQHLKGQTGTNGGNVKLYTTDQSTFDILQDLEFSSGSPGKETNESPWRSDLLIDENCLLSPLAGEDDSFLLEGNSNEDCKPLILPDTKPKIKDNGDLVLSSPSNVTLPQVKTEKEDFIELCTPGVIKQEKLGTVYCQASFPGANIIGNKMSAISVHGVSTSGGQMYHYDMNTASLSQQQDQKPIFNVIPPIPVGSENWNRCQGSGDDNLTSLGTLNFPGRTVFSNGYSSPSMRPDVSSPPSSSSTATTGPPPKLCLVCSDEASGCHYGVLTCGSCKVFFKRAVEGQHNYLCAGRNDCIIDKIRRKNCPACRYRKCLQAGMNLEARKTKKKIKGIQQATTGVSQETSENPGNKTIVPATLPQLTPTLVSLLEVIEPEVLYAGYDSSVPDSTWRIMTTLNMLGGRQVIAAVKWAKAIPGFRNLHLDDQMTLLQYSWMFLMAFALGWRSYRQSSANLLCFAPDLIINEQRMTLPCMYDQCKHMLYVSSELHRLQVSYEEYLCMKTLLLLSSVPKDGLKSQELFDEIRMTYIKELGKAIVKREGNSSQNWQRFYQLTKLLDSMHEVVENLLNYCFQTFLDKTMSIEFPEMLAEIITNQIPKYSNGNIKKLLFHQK

[2] = in one study (Kawai 1989); cited from earlier work
[3] = target: T2, progesterone receptor (Homo sapiens, UniProt P06401); details: cited from earlier work
T2 sequence (P06401 1-933): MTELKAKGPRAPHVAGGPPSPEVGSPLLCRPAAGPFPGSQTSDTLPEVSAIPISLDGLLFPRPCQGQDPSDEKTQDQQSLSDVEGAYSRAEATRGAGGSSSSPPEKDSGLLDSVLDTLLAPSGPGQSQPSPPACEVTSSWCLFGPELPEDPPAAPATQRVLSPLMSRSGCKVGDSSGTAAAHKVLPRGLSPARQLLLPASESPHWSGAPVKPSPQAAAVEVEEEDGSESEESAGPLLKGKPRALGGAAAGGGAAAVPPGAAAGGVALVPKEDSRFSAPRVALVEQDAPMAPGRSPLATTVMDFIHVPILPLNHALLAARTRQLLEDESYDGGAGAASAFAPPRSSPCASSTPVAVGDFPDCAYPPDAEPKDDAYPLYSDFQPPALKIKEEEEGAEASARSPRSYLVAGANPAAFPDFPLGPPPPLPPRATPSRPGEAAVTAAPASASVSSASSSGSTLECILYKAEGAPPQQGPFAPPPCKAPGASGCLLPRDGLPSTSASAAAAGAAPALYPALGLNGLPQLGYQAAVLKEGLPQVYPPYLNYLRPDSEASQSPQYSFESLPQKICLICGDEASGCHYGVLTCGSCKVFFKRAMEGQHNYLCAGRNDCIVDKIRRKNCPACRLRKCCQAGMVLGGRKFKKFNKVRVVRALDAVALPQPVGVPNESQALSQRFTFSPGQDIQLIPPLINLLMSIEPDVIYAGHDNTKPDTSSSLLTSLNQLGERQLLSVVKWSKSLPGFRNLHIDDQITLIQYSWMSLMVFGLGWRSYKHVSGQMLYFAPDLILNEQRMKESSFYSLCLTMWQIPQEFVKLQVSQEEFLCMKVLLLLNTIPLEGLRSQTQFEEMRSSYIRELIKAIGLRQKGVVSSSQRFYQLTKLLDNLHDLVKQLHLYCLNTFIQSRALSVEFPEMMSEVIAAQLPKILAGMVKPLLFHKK

Question: With CC#C[C@]1(O)CC[C@H]2[C@@H]3CCC4=CC(=O)CCC4=C3[C@@H](c3ccc(OCCN(C)C)cc3)C[C@@]21C [RU009, 11β-(4-dimethylaminoethoxyphenyl)-17α-propynyl-17β-hydroxy-4,9 estradien-3-one] as the molecule, how does the “glucocorticoid receptor antagonist activity” value [1] read?
Answer: Its value is “glucocorticoid receptor antagonist effects”.

Question: What does the source list for CC#C[C@]1(O)CC[C@H]2[C@@H]3CCC4=CC(=O)CCC4=C3[C@@H](c3ccc(N(C)C)cc3)C[C@@]21C [mifepristone, 17-β-hydroxy-11-β-(4-dimethyl-aminophenyl)-17-α-(1-propynyl)-estra-4,9-dien-3-one]?
Answer: daily dose excreted in the urine [2]: less than 0.5%; glucocorticoid receptor antagonist activity [1]: powerful antagonist; progesterone receptor antagonist activity [3]: powerful antagonist
